Laboratory results: paper PMC10848157, “Assessing NH300094, a novel dopamine and serotonin receptor modulator with cognitive enhancement property for treating schizophrenia” (Frontiers in Pharmacology, 2024)
Structures can show the parent of a compound that is named as a salt.

Columns and labels:
5-HT1B receptor = 5-HT1B receptor (Homo sapiens, UniProt P28222); experiment: 5-HT1B receptor functional assay (cAMP assay, inverse agonist); assay type: cell-based; settings: inverse agonist activity, CHO-K1/5-HT1B cells, read-out: 5HT1BR, EC50
5-HT2C receptor = molecular target: T1, 5-HT2C receptor (Homo sapiens, UniProt P28335); experiment: 5-HT2C receptor functional assay (calcium flow, FLIPR); assay type: cell-based; settings: HEK293/5-HT2C cells, read-out: 5HT2cR, IC50
T1 sequence (P28335 33-458): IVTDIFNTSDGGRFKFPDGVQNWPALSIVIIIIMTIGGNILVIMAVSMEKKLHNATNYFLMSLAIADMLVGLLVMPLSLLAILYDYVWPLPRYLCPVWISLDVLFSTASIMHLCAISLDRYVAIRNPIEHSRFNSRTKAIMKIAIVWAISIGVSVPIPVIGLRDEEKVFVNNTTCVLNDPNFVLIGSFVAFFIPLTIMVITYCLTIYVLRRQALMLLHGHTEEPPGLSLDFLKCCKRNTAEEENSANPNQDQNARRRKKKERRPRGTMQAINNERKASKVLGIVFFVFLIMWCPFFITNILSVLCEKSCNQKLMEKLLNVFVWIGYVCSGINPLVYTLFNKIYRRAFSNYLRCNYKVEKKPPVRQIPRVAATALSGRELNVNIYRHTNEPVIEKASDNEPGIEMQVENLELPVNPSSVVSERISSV

male ICR mice [1] = experiment: APO-induced climbing in mice
male ICR mice [2] = experiment: Forced swimming test in mice; assay type: in vivo; settings: single oral dose; NH300094 0.03 mg/kg; risperidone 0.01, 0.03 and 0.1 mg/kg
Description: Each mouse was required to swim in an open cylindrical container (height of 25 cm, diameter of 10 cm) after intragastric administration of compounds 1 h. The container contained 1.2 L of water with temperature maintained at 24°C ± 1°C. The test used a computerized analysis and tracking system (Clever Sys Inc., Leesburg, VA) to recorded the duration of immobility (last 4 min of a total time of 6 min) about the testing mice.

male Wistar rats = experiment: Conditioned avoidance response test in rats; assay type: in vivo; settings: Rattus norvegicus, single oral dose, read-out: ED50, inhibition of conditioned avoidance response
Source text: Shuttle-box Avoidance Test Video Analysis System (DigBehv-SBG, Shanghai Jiliang Software Technology Co. Ltd.) were used to assess the rats conditioned avoidance response.
Phase I: The rats responded to the conditioned stimulus (auditory and visual) by training with foot shock reinforcement. Briefly, rats were placed into the CAR shuttle boxes for a 5-min habituation followed by 30 trials presented on a 20-s variable interval (20–30 s) stimulus. Each rats were subjected to a conditioned stimulus which consisted of 10s presentation of light and white noise, and then followed by a scrambled 1.5 mA foot shock for 10 s. […] Rats with avoidance rates greater than 70% for 3 consecutive days were included in this study post-training.
Phase II: The qualified rats were randomly divided into 7 groups. […] The procedure in the testing phase was the same as the Phase I described. The number of avoidances, escapes, and escape failures were recorded.

male ICR mice [3] = experiment: DOI-induced head twitch in mice
male ICR mice [4] = experiment: MK-801-induced hyperactivity in mice; assay type: in vivo; settings: single oral dose
Description: Immediately after injection with either saline or MK-801 (0.3 mg/kg, i.p.), the mice were placed into the test chambers (29 cm × 29 cm × 30 cm) for 60 min of locomotion recording using a tracking and computerized analysis system (TopScan Version 3.00, Clever Sys Inc., Leesburg, VA).

male ICR mice [5] = experiment: Novel object recognition in scopolamine hydrobromide-treated mice; assay type: in vivo; settings: NOR; NH300094 0.01–0.16 mg/kg p.o.; risperidone 0.04, 0.08, 0.16 mg/kg p.o.; rivastigmine 0.3 and 1 mg/kg i.p.
Description: The procedure was modified according to Bevins and Besheer ([Bevins and Besheer, 2006]). […] The tests were conducted in a 50 cm × 35 cm × 20 cm chamber and the mice behavior was recording using a Hikvision video recording system (H.265, Hikvision Digtial Technology Co., Ltd.). All mice were allowed to freely explore the chamber environment for 10 min, and there were no objects placed in the chamber during acclimatization period. […] Rivastigmine hydrogen tartrate group (0.1, 0.3 and 1 mg/kg, i.p.) were dosed simultaneously with scopolamine hydrobromide (3 mg/kg, i.p.). Training was conducted 30 min post scopolamine hydrobromide administration by placing a single mouse into a chamber for 10 min with two exactly same objects positioned in the center of chamber. (The distance between the two objects was more than 20 cm). […]
The experimental video was analyzed to record the time of mice exploring the new and old objects, respectively, and the differentiation index (DI) was calculated as follows: DI = new object exploration time/(new object exploration time + old object exploration time), which was used as the main evaluation index of discrimination ability. […] If the total exploration time of the new and old objects was less than 20 s, the total 10 min of video would be analyzed. […] The movement of circling without sniffing or sitting on the object was not recorded as exploration behavior.

[6] = single oral dose, male ICR mice

Sequence of 5-HT1B receptor (P28222 whole entry): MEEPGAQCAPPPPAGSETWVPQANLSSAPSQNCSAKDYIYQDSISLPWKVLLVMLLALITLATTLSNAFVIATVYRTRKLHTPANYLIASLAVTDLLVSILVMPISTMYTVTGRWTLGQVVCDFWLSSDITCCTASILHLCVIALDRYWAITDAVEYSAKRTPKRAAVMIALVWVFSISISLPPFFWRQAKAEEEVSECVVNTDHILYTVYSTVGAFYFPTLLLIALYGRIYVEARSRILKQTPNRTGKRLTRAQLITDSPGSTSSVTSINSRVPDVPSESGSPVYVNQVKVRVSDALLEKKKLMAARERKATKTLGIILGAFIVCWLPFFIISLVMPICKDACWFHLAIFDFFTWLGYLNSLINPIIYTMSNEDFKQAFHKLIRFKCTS

Which EC50 (5-HT1B receptor) does the source give for `CSc1ccc2c(c1)C(N1CCN(C)CC1)Cc1ccccc1S2` (centres unmarked) [Methiothepin, reference compound] here?
Its EC50 is 22.3 ± 9.69 nM.

What about the IC50 (5-HT2C receptor) of the same compound?
Its IC50 is 39.7 nM.

With `Cc1nc2n(c(=O)c1CCN1CCC(c3noc4cc(F)ccc34)CC1)CCCC2` [Risperidone, risperidone, reference compound] as the compound, how does the ED50 (male ICR mice [1]; Mus musculus, read-out: ED50, inhibition of APO-induced climbing) read?
Its ED50 is ~0.1 mg/kg.

And the “MED, APO-induced climbing” value (male ICR mice [1]; [6])?
Its value is 0.1 mg/kg.

What about the “effect on immobility time in the FST” value (male ICR mice [2]) of the same compound?
The value was “did not affect the immobility time”.

And the ED50 (male Wistar rats)?
Its ED50 is ~0.7 mg/kg.

And the ED50 (male ICR mice [3]; Mus musculus, po, read-out: ED50, inhibition of DOI-induced head twitch, single oral dose, male ICR mice, DOI 1 mg/kg)?
Its ED50 is ~0.002 mg/kg.

What about the “MED, DOI-induced head twitch” value (male ICR mice [3]; [6]) of the same compound?
The value was 0.001 mg/kg.

What about the ED50 (male ICR mice [4]; Mus musculus, MK-801 0.3 mg/kg i.p., read-out: ED50, inhibition of MK-801-induced hyperactivity) of the same compound?
Its ED50 is ~0.08 mg/kg.

What about the “Minimum effective dose (MED), MK-801-induced hyperactivity” value (male ICR mice [4]) of the same compound?
Its value is 0.1 mg/kg.

Which “effect on differentiation index (DI) of scopolamine hydrobromide-treated mice” value (male ICR mice [5]) does the source give for `CCN(C)C(=O)Oc1cccc([C@H](C)N(C)C)c1` [rivastigmine bitartrate, rivastigmine hydrogen tartrate, reference compound] here?
Its value is “significantly enhanced learning and memory ability”.
